Results as given in patent US9643964B2, “3-(2-aminopyrimidin-4-yl)-5-(3-hydroxypropynyl)-1H-pyrrolo[2,3-C]pyridine derivatives as NIK inhibitors for the treatment of cancer” (Janssen Pharmaceutica NV, priority 2013, dated 2017).

Key:
JJN-3 cells = experiment: Biological Assay C: antiproliferative activity on JJN-3 cells (CellTiter-Glo); assay type: cell-based, human; conditions: Homo sapiens, JJN-3, 72 h, 72 hr treatment; averaged values
In short: (§1)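 CellTiter-Glo luminescence after 72 h exposure, blank (cells read at compound addition) subtracted, growth expressed as % of untreated control; duplicate wells. Suspension cells in RPMI/10% FCS, 2,000–6,000 cells/well, 0.3% DMSO.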

LP-1 cells = experiment: Biological Assay C: antiproliferative activity on LP-1 cells (CellTiter-Glo); assay type: cell-based, human; conditions: Homo sapiens, LP-1, 72 h, 72 hr treatment; averaged values
In short: as §1

[1] = test system: P-IKKα levels in L363 cells; experiment: Biological Assay B: effect of compounds on P-IKKα levels in L363 cells; assay type: cell-based; conditions: Homo sapiens, L-363, averaged values, read-out: IKKα Cellular IC50
In short: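 L363 cells pre-incubated 24 h with 1 μg/ml stock BAFF, then treated 2 h with compounds (8-point, 1:3 dilutions, 1% DMSO) at 37° C; P-IKKα in lysates measured by sandwich immunoassay. Blank (10 μM ADS125117) subtracted; IC50 from sigmoidal fit of % inhibition of MG132/BAFF control.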

[2] = target: T1, Recombinant Human NF-kappaB-Inducing Kinase (NIK/MAP3K14) (Homo sapiens, UniProt Q99558); experiment: Biological Assay A: inhibition of recombinant human NIK/MAP3K14 activity (MBP phosphorylation, Mesoscale); assay type: biochemical; conditions: averaged over all measurements on all batches; read-out: Biochemical (MSD MBP) IC50
In short: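 10 nM NIK with 25 μM ATP on MBP-coated plates in Tris pH 7.5 buffer with MgCl2, DTT and Na3VO4 and 1% DMSO, for 1 h at 25° C. Phospho-MBP was detected by anti-phospho-MBP and Sulfotag electrochemiluminescence; after blank subtraction, IC50 came from a sigmoidal fit of % inhibition.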

[3] = target: T1, Recombinant Human NF-kappaB-Inducing Kinase (NIK/MAP3K14); experiment: Biological Assay A2: inhibition of auto-phosphorylation of recombinant human NIK/MAP3K14 (AlphaScreen); assay type: biochemical; conditions: auto-phosphorylation; averaged over all measurements on all batches; read-out: αscreen IC50
In short: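 GST-tagged NIK/MAP3K14 (0.2 nM) auto-phosphorylation with 25 microM ATP in 50 mM Tris pH 7.5, 5 mM MgCl2, 1% DMSO; 1 h at 25° C. Phospho-IKK Ser176/180 detected by AlphaScreen; blank-subtracted % inhibition fitted sigmoidally vs log concentration for IC50.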

L-363 cells = experiment: Biological Assay C: antiproliferative activity on L-363 cells (CellTiter-Glo); assay type: cell-based, human; conditions: Homo sapiens, L-363, 72 h, 72 hr treatment; averaged values
In short: as §1

T1 sequence (Q99558 whole entry): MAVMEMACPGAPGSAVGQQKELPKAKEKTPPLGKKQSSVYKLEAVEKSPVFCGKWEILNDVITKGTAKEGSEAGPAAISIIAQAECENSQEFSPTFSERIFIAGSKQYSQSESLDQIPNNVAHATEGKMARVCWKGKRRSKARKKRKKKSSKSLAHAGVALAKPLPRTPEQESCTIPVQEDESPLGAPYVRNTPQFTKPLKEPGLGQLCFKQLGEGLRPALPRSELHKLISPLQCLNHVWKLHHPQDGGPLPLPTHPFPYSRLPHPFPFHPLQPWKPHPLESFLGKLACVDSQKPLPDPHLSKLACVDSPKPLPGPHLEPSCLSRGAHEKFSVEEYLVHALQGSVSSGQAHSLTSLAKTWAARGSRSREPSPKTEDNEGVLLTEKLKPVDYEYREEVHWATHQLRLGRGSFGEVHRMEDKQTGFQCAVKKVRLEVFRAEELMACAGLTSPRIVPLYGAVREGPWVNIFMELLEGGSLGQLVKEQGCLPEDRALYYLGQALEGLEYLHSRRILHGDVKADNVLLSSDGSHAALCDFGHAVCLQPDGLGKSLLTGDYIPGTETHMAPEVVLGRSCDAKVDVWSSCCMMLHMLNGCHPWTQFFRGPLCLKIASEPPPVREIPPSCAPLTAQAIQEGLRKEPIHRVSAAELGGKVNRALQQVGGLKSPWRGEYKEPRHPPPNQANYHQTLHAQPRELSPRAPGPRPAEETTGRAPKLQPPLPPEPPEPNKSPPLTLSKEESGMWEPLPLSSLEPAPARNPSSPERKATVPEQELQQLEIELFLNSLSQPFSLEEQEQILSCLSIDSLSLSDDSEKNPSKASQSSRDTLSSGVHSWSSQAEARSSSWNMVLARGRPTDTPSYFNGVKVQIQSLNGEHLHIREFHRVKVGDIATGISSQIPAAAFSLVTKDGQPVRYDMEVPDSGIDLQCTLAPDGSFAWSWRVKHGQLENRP

Row | IC50 [1] [nM] | IC50 [2] [nM] | IC50 [3] [nM] | SMILES | EC50 (JJN-3 cells) [nM] | EC50 (LP-1 cells) [nM] | EC50 (L-363 cells) [nM]
1 | 8 | 3.3 | 1 | CC(C)(O)C#Cc1cc2c(-c3nc(N)ncc3Cl)cn(CCO)c2cn1 [Compound 8] | 94 | 2700 | 250
2 | 130 | 46 | 21 | CNc1nccc(-c2c[nH]c3cnc(C#CC(C)(C)O)cc23)n1 [Compound 4] | 420 | 5300 | 400
3 | 21 | 27 | 17 | COCCn1cc(-c2nc(N)ncc2F)c2cc(C#CC(C)(C)O)ncc21 [Compound 54] | 89 | 330 | 59
4 | 100 | 9.2 | 29 | CC(O)C#Cc1cc2c(-c3ccnc(N)n3)cn(C(C)C)c2cn1 (stereo not drawn) [Compound 10] | 80 | 230 | 46
5 | 1700 | 240 | 740 | CC(C)n1cc(-c2nc(N)ncc2CCCN)c2cc(C#CC(C)(C)O)ncc21 [Compound 118] | 330 | 3800 | 1600
6 | 36 | 25 | 21 | COCCCn1cc(-c2ccnc(N)n2)c2cc(C#CC(C)(C)O)ncc21 [Compound 44] | 250 | 1700 | 400
7 | 140 | 84 | 180 | CC(C)(O)C#Cc1cc2c(-c3ccnc(N)n3)cn(CC3CCOCC3)c2cn1 [Compound 55] | 380 | 11000 | 980
8 | 12 | 3.9 | 2 | CC(C)(O)C#Cc1cc2c(-c3nc(N)ncc3F)c[nH]c2cn1 [Compound 45] | 22 | 590 | 90
9 | 140 | 6.3 | 17 | Cc1cnc(N)nc1-c1c[nH]c2cnc(C#CC(C)(C)O)cc12 [Compound 112] | 440 | 14000 | 1300
10 | 75 | 20 | 9 | CC(C)(O)Cn1cc(-c2ccnc(N)n2)c2cc(C#CC3(O)CC3)ncc21 [Compound 22] | 280 | 1600 | 190
